Earlier results in patent publication US9173940B1, “Mixture of betamethasone and tranilast with a transdermal gel for scar treatment” (PROFESSIONAL COMPOUNDING CENTERS OF AMERICA (PCCA), priority 2014, dated 2015).

Conditions: taken orally

For `COc1ccc(/C=C/C(=O)Nc2ccccc2C(=O)O)cc1OC` [Tranilast], which oral absorption is on record?
Its oral absorption is “well-absorbed”.
